Measured values: patent US20070274916A1, “Method for Identifying Compounds that Affect Expression of Tryptophan Hydroxylase Isoform 2” (priority 2003, published 2007)
“Also recorded” adds a separate entry of the source.

What was measured:
TPH2 mRNA [1] = assay: TPH2 mRNA levels in murine raphe slice preparation of ovariectomized female mice by real-time RT-PCR; assay type: in vivo, mouse
Source text: Female mice (13 to 16 wks of age) were ovariectomized (C57BL/6s from Charles River; ER Knockout animals from Taconic). Animals were fed a soy-free rodent chow and allowed a minimum of one week to recuperate from surgery and shipping. […] Approximately six hours following the fourth dose, mice were deeply anesthetized with ketamine/xylazine and brains were removed from the skull, placed ventral side up in a mouse brain block on ice, and ice-cold razor blades were inserted into the block at 1 mm intervals. The caudal extent of the hypothalamus was used as an anatomical marker for the placement of the first razor blade, and 4 blades were placed in sequential slots, caudally. The four sections were examined and the two that encompassed the greatest extent of the dorsal raphe were placed in a tube containing […] (Ambion, Austin, Tex.) and placed at 4° C. overnight. Brain slices were removed from […] after 24 hours and stored at −80° C. in fresh tubes.
Two TPH2 primer and probe sets were generated for use in detecting TPH2 by real-time RT-PCR. Murine TPH2 forward primers were mTPH2-514F and mTPH2-1270F, their corresponding sequences are 5′-[…]-3′ (SEQ ID NO:7; corresponding to nucleotides 514 to 535 of the nucleotide sequence encoding TPH2) and 5′-[…]-3′ (SEQ ID NO:8; corresponding to nucleotides 1270 to 1290 of the nucleotide sequence encoding TPH2), respectively. The murine TPH2 reverse primers were mTPH2-585R and mTPH2-1344R, their corresponding sequences are 5′-[…]-3′ (SEQ ID NO:9; corresponding to nucleotides 567 to 585 of the nucleotide sequence encoding TPH2) and 5′-[…]-3′ (SEQ ID NO:10; corresponding to nucleotides 1324 to 1344 of the nucleotide sequence encoding TPH2), respectively. The murine TPH2 probes were mTPH2-565T and mTPH2-1292T, their corresponding sequences are: 5′-[…]-3′ (SEQ ID NO:11; corresponding to nucleotides 539 to 565 of the nucleotide sequence encoding TPH2) and 5′-[…]-3′ (SEQ ID NO:12; corresponding to nucleotides 1292 to 1317 of the nucleotide sequence encoding TPH2), respectively. The probes were labeled at the 5′ end with FAM and the 3′ end with TAMRA.
Isolation of total RNA from mouse raphe slices for real-time PCR analysis using the TAQMAN ABI PRISMS 7700 Detection System, Applied Biosystems, Foster City, Calif. was as follows. Samples were stored in […] at 4° C. overnight followed by removal of […] and storage at −80° C. until isolation of the total RNA (2 slices weigh 25 to 50 mg). Slices were removed from −80° C. and placed in 1.0 mL TRIZOL Reagent in FASTPREP processing tubes. Slices were homogenized with one pass at setting 6 for 30 seconds in FASTPREP 120 homogenizer using LYSING MATRIX D tubes with bead matrix followed by 20 seconds at setting 6 after all samples had been processed. Samples were set at room temperature for 5 minutes to allow for complete dissociation of nucleoprotein complexes followed by centrifugation of the samples at 12,000×g for 5 minutes at 4° C. Homogenates were transferred to 1.5 mL; microcentrifuge tubes and 100 μL BCP (Bromo-3-chloropropane) was added. Samples were vortexed for 15 seconds and set at room temperature for 2 to 3 minutes. Samples were centrifuged at 12,000×g for 15 minutes at 4° C. The aqueous layer was removed and placed in a new RNAse-free sterile 1.5 mL microcentrifuge tube. Five μL of 5 mg/μL glycogen was added to each sample and the samples were vortexed. Five hundred μL of isopropanol was added to each sample. The samples were vortexed for 15 seconds, set at room temperature 10 minutes, followed by centrifugation at 12,000×g for 15 minutes at 4° C. Supernatants were decanted and pellets washed with 500 μL ice cold 75% ethanol.

TPH2 mRNA [2] = assay: TPH2 mRNA levels in raphe slice preparations from intact male mice by real-time RT-PCR; assay type: in vivo, mouse
Description: Ovariectomized C57/BL6 female mice (13 to 16 wks of age) were from Charles River Laboratories and intact C57/BL6 male mice (13 to 16 wks of age) were from Taconic Laboratories. Animals were fed a soy-free rodent chow and allowed a minimum of one week to recuperate from surgery and shipping. Mice were dosed subcutaneously in the morning (once daily for 4 days) with 0.1 cc of vehicle (sesame oil) or compound (dose is indicated for each experiment). Approximately six hours following the fourth dose, mice were deeply anesthetized with ketamine/xylazine.
For real-time RT-PCR analyses brains were removed from the skull, placed ventral side up in a mouse brain block on ice, and ice-cold razor blades are inserted into the block at 1 mm intervals. The caudal extent of the hypothalamus was used as an anatomical marker for the placement of the first razor blade, and 4 blades are placed in sequential slots, caudally. The four sections are examined and the two that encompass the greatest extent of the dorsal raphe are placed in a tube containing RNA-later and placed at 4° C. overnight. Brain slices were removed from RNALATER (Ambion) after 24 hr and stored at −80° C. in fresh tubes. An n of seven animals was used per treatment group for real-time RT-PCR studies. For in situ hybridization histochemistry brains are removed from the skull and placed ventral side up on powdered dry ice and frozen brains are stored at −80° C. until sectioning. An n of 5 to 6 animals was used per treatment group for in situ hybridization histochemistry analyses.
The murine TPH2 primers were mTPH2-514F and mTPH2-585R and the murine TPH2 probe was mTPH2-565T. mTPH2-565T was labeled with the fluorescent dye FAM and the quencher TAMRA.
Isolation of total RNA from murine raphe slices for TAQMAN analysis has been described in Example 2. Genomic DNA was removed from the total RNA samples using the DNA-FREE kit (Ambion) and cDNA synthesis performed using Multiscribe RT and the TaqMan Gold RT reagents (ABI). Reverse transcription was halted by the addition of EDTA. Samples were transferred to a storage plate and stored at −20° C.
Real-time PCR analyses using TAQMAN was as follows. A 2.5 μL of cDNA was added to each well of a 96well plate with 22.5 μl of TaqMan® reaction mix (1× Universal Master Mix (ABI), 20 nM forward and reverse 18S rRNA control primers, and 100 nM 18S rRNA control probe (ABI) and 300 nM mTPH2-514F and mTPH2-585R primers, 200 nM mTPH2-565T probe. Samples were run on an ABI PRISM 7700 Sequence Detection Instrument (Applied Biosystems (ABI), Foster City, Calif.) and collected data was analyzed using Merck Biometrics TAQMAN Plus program and statistical significance determined using a one-way ANOVA (CMG, Merck Biometrics).

## C[C@]12CC[C@@H]3c4ccc(O)cc4CC[C@H]3[C@@H]1CC[C@@H]2O [17β-estradiol]
TPH2 mRNA [1]; 0.025 to 0.2 mpk s.c. once daily for four days, FIG. 4C
  effect on expression of TPH2 mRNA in raphe slice: no apparent effect
TPH2 mRNA [2]; dose not stated
  effect on TPH2 mRNA levels: no effect

## CC#C[C@]1(O)CC[C@H]2[C@@H]3CCC4=CC(=O)CCC4=C3[C@@H](c3ccc(N(C)C)cc3)C[C@@]21C [mifepristone]
TPH2 mRNA [1]; RU486 10 mpk once daily, TPH2-514 or TPH2-1270 primer/probe set, FIG. 7, 10 mg/kg
  effect on TPH2 mRNA expression compared to vehicle: decrease; also recorded: significant reduction
TPH2 mRNA [1]; RU486 20 mpk once daily, TPH2-514 primer/probe set, FIG. 8, 20 mg/kg
  effect on TPH2 mRNA expression: further reduction; also recorded: significant reduction
TPH2 mRNA [1]; alone and mixed with dexamethasone, Example 2
  glucocorticoid agonist/antagonist character shown by TPH2 mRNA expression: mixed or partial agonist
TPH2 mRNA [1]; co-administered with 3 mg/kg dexamethasone, ovariectomized female mice, FIG. 9, 3 mg/kg
  effect on the dexamethasone reduction of TPH2 mRNA levels: blocked; also recorded: antagonizes
TPH2 mRNA [1]; mifepristone alone, 20 mg/kg, FIG. 9
  reduction in TPH2 mRNA levels: 28%
TPH2 mRNA [2]; co-administered with 1 mg/kg dexamethasone, FIG. 15, 1 mg/kg
  effect on the dexamethasone reduction of TPH2 mRNA levels: blocked; also recorded: antagonizes
TPH2 mRNA [2]; mifepristone alone, 30 mg/kg
  effect on TPH2 message levels: no effect

## C[C@@H]1C[C@H]2[C@@H]3CCC4=CC(=O)C=C[C@]4(C)[C@@]3(F)[C@@H](O)C[C@]2(C)[C@@]1(O)C(=O)CO [dexamethasone]
TPH2 mRNA [1]; 0.1 mg/kg s.c. once daily for four days, FIG. 14
  reduction in TPH2 mRNA levels: 23%
TPH2 mRNA [1]; 1 mg/kg once daily for four days, FIG. 14
  reduction in TPH2 message levels: 30%
TPH2 mRNA [1]; 3 mg/kg s.c. once daily for four days, FIG. 14
  reduction in TPH2 mRNA levels: 44%
TPH2 mRNA [1]; dexamethasone 3 mg/kg once daily for four days, FIG. 9
  reduction in TPH2 mRNA levels: 40%
TPH2 mRNA [2]; 1 mpk once daily for four days, FIG. 15
  reduction in TPH2 mRNA levels: 26%
